In US9738637B2, “Histone demethylase inhibitors” (Quanticel Pharmaceuticals, Inc., priority 2013, dated 2017):
Where a name gives a salt, the structure may show the parent alone.

Assays:
JMJD2A = JMJD2A (Homo sapiens (Human), UniProt O75164); experiment: JMJD2A in vitro enzyme inhibition assay (TR-FRET); type: biochemical; conditions: H3K9me3-biotin peptide
Method: This assay determines the ability of a test compound to inhibit Jarid1A, Jarid1B, JMJD2C, and JMJD2A demethylase activity.
Reaction product was determined quantitatively by TR-FRET after the addition of detection reagent Phycolink Streptavidin-allophycocyanin (Prozyme) and Europium-anti-di-methylated histone H3 lysine 9 (H3K9me2) antibody (PerkinElmer) in the presence of 5 mM EDTA in LANCE detection buffer (PerkinElmer) at a final concentration of 50 nM and 1 nM, respectively.
The assay reaction was initiated by the following: 2 μl of the mixture of 900 nM H3K9me3-biotin labeled peptide and 6 μM alpha-ketoglutaric acid with 2 μl of 11-point serial diluted inhibitor in 3% DMSO were added to each well of plate, followed by the addition of 2 μl of 6 nM JMJD2A to initiate the reaction. The reaction mixture was incubated at room temperature for 30 minutes, and terminated by the addition of 6 μl of 5 mM EDTA in LANCE detection buffer containing 100 nM Phycolink Streptavidin-allophycocyanin and 2 nM Europium-anti-H3K9me2 antibody.
The ability of the compounds disclosed herein to inhibit demethylase activity was quantified and the respective IC50 value was determined.

KDM5A and KDM5B = experiment: In vitro cell-based assay, ZR-75-1 cell line: tri-methyl H3K4 immuno-blotting (cellular inhibition of KDM5A/B); conditions: ZR-75-1 breast cancer cells, 72 hours, read-out: IC50 ZR-75-1 cell-MOA
Source text: This quantitative immuno-blotting assay measures the amount tri-methylated histone H3 at amino acid Lysine number 4, a specific substrate […] of the direct enzymatic activity of the histone demethylases KDM5A and KDM5B from extracts of the ZR-75-1 breast cancer cell line.
This assay is a fluorometric immunoassay for the quantification of tri-methyl H3K4 extracted from cells treated with test compound and is used as a measure of the cellular inhibition of KDM5A/B.
Cells were left in the presence of test compound for 72 hours. Extracts were prepared containing all of the cellular histone material using detergent based lysis and sonication methods. These lysates were subsequently normalized for total protein content using a colorimetric bicinchonic acid assay (MicroBCA Pierce/Thermo Scientific). Normalized cell extracts were then subjected to typical immuno-blotting procedures using NuPage reagents (Life Technologies). Electrophoretically separated histones were then transferred and immobilized using polyvinylidene difluoride membrane (Immobilon-FL Millipore). The amount of tri-methylated lysine 4 of histone H3 was detected using an antibody specific to the tri-methylated state (Cell Signaling Technologies) and quantified on an infrared imager using a densitometry software package (Odyssey CLx, Image Studio, Li-Cor). This background subtracted densitometry value was reported as a ration of the GAPDH amount for that sample and then calculated as a percent of the DMSO treated sample. The software package XL-fit (IDBS) was then used to calculate a relative IC50 value for the dilution series of a given test compound according to the equation: fit=(D+((Vmax*(x^n))/((x^n)+(Km^n)))).

Jarid1A = Jarid1A (Homo sapiens (Human), UniProt P29375); experiment: Jarid1A in vitro enzyme inhibition assay (TR-FRET); type: biochemical; conditions: H3K4me3-biotin peptide
Jarid1B = Jarid1B (Homo sapiens (Human), UniProt Q9UGL1); experiment: Jarid1B in vitro enzyme inhibition assay (TR-FRET); type: biochemical; conditions: TR-FRET, H3K4me3-biotin peptide; read-out: IC50 Jarid1B
JMJD2C = JMJD2C (Homo sapiens (Human), UniProt Q9H3R0); experiment: JMJD2C in vitro enzyme inhibition assay (TR-FRET); type: biochemical; conditions: TR-FRET, H3K9me3-biotin peptide; read-out: IC50 JNJD2C
JMJD2C, sequence (Q9H3R0 2-372): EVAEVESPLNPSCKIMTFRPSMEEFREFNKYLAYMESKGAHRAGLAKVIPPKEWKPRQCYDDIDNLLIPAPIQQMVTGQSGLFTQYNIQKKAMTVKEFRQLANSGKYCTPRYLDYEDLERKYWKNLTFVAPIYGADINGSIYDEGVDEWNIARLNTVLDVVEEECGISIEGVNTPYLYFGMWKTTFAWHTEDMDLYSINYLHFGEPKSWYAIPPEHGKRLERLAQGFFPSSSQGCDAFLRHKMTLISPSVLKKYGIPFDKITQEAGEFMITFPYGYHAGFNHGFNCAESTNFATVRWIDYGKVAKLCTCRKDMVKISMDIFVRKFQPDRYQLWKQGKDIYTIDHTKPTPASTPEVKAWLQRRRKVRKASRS

Jarid1B, sequence (Q9UGL1 2-751): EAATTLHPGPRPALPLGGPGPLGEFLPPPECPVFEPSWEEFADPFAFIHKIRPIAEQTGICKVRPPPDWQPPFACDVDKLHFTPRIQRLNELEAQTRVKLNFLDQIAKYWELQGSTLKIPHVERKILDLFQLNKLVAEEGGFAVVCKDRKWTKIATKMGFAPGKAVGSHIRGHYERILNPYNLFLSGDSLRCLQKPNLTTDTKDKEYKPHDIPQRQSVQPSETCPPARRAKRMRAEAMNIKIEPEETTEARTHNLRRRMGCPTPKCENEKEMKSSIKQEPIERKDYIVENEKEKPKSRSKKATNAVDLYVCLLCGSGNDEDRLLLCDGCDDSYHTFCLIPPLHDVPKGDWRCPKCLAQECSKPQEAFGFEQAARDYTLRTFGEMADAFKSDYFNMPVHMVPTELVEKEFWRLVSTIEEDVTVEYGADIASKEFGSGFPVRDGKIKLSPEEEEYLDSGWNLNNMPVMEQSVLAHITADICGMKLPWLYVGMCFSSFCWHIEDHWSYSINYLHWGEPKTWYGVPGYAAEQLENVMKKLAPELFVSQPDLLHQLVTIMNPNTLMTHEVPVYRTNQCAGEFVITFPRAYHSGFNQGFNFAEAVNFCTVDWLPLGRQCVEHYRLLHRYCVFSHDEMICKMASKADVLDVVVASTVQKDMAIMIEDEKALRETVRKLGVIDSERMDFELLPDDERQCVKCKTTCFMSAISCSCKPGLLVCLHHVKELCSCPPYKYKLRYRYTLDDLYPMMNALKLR
Jarid1A, sequence (P29375 1-1090): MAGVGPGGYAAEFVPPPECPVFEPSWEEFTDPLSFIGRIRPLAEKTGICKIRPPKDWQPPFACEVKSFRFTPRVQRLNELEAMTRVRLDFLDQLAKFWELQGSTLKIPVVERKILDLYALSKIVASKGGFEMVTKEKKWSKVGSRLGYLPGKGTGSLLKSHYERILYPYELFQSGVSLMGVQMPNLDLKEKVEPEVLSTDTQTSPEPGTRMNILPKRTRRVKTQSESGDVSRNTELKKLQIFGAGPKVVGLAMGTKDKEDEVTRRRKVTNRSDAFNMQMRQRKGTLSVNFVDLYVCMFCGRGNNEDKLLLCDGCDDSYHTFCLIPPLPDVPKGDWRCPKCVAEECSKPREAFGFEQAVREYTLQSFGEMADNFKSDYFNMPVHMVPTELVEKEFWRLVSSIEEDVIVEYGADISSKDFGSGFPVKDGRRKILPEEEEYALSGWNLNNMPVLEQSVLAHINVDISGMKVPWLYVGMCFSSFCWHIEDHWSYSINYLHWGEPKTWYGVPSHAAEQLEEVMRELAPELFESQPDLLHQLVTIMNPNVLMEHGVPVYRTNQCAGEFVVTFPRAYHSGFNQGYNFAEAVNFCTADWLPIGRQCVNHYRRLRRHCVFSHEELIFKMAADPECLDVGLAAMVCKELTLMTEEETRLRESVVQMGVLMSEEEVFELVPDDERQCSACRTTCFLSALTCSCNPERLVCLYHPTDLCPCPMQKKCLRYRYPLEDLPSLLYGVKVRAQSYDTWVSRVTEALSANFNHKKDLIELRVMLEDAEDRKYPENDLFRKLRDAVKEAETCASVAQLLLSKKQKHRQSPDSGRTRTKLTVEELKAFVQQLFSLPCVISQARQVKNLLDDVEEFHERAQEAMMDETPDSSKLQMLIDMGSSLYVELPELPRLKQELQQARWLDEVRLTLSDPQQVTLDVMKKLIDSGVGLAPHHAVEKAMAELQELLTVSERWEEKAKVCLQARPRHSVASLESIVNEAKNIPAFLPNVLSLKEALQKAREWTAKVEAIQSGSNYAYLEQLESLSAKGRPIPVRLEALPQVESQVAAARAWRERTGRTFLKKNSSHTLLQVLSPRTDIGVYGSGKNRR
JMJD2A, sequence (O75164 1-350): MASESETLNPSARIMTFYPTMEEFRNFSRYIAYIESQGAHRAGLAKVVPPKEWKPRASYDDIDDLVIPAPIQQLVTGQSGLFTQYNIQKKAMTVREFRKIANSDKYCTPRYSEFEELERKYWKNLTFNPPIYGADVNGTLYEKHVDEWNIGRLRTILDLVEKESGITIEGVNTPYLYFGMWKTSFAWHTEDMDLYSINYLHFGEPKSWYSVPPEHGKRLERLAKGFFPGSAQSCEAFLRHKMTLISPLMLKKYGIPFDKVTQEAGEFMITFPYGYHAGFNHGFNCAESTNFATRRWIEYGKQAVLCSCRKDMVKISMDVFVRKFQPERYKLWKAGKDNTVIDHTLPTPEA

| Structure (SMILES) | IC50 (JMJD2A) | IC50 (KDM5A and KDM5B) | IC50 (Jarid1A) | IC50 (Jarid1B) | IC50 (JMJD2C) |
| --- | --- | --- | --- | --- | --- |
| O=C(O)c1ccnc2cc(Cc3ccccc3)[nH]c12 [Example 7, 2-benzyl-1H-pyrrolo[3,2-b]pyridine-7-carboxylic acid, sodium salt] | 100 to 1000 nM | > 10000 nM | 100 to 1000 nM | 100 to 1000 nM | 100 to 1000 nM |
| Cc1cc(Cc2cc3nccc(C(=O)O)c3[nH]2)ccc1Cl [Example 134, 2-(4-chloro-3-methylbenzyl)-1H-pyrrolo[3,2-b]pyridine-7-carboxylic acid] | 100 to 1000 nM |  | 1000 to 10000 nM | 100 to 1000 nM | < 100 nM |
| O=C(O)c1ccnc2cc(Cc3ccc(Cl)c(C(F)(F)F)c3)[nH]c12 [Example 136, 2-[4-chloro-3-(trifluoromethyl)benzyl]-1H-pyrrolo[3,2-b]pyridine-7-carboxylic acid] | 100 to 1000 nM |  | 1000 to 10000 nM | 1000 to 10000 nM | < 100 nM |
| O=C(O)c1ccnc2cc(Cc3ccc(Cl)c(OCC4CC4)c3)[nH]c12 [Example 138, 2-[4-chloro-3-(cyclopropylmethoxy)benzyl]-1H-pyrrolo[3,2-b]pyridine-7-carboxylic acid] | 1000 to 10000 nM |  | 100 to 1000 nM | < 100 nM | < 100 nM |
| O=C(O)c1ccnc2cc(Cc3ccc(Cl)c(OC(F)(F)F)c3)[nH]c12 [Example 142, 2-[4-chloro-3-(trifluoromethoxy)benzyl]-1H-pyrrolo[3,2-b]pyridine-7-carboxylic acid] | 100 to 1000 nM |  | 100 to 1000 nM | < 100 nM | < 100 nM |
